ChEMBL document CHEMBL4811243, “Design, synthesis, and biological evaluation of a novel dual peroxisome proliferator-activated receptor alpha/delta agonist for the treatment of diabetic kidney disease through anti-inflammatory mechanisms” (Eur J Med Chem, 2021)

Columns and labels:
[1] = molecular target: T1, Peroxisome proliferator-activated receptor gamma (Homo sapiens, UniProt P37231); test: Agonist activity at human Gal4 fused PPARgamma LBD expressed in COS-7 cells incubated for 24 hrs by firefly luciferase reporter gene assay; format: cell-based
T1 sequence (P37231 whole entry): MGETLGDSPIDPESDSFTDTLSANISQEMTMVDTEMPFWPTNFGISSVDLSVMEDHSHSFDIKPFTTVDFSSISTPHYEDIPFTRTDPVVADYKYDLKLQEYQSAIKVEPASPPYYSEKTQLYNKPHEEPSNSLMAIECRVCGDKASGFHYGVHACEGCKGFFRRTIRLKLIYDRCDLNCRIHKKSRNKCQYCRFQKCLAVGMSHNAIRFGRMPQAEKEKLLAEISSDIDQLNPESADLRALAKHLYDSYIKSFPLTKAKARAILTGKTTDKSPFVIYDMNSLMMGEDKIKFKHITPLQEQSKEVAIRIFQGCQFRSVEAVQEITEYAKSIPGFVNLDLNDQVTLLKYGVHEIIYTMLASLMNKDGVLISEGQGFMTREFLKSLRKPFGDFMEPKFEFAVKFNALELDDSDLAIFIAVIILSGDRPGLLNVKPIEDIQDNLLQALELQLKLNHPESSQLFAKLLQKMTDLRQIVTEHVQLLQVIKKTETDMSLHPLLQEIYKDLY

[2] = molecular target: T2, Peroxisome proliferator-activated receptor delta (Homo sapiens, UniProt Q03181); test: Agonist activity at human Gal4 fused PPARdelta LBD expressed in COS-7 cells incubated for 24 hrs by firefly luciferase reporter gene assay; format: cell-based
T2 sequence (Q03181 whole entry): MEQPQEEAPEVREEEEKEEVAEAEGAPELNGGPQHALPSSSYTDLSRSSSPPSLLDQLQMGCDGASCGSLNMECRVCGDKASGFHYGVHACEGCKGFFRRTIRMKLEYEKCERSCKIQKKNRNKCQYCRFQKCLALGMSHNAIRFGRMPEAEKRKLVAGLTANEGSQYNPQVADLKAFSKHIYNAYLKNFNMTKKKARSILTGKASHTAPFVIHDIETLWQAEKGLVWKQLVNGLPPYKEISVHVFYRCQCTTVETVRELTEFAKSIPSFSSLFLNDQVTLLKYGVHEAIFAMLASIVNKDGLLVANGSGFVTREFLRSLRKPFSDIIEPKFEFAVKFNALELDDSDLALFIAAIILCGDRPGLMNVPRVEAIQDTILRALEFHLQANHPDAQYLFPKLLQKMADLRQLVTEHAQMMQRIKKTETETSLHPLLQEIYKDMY

[3] = molecular target: T3, Peroxisome proliferator-activated receptor alpha (Homo sapiens, UniProt Q07869); test: Agonist activity at human Gal4 fused PPARalpha LBD expressed in COS-7 cells incubated for 24 hrs by firefly luciferase reporter gene assay; format: cell-based
T3 sequence (Q07869 whole entry): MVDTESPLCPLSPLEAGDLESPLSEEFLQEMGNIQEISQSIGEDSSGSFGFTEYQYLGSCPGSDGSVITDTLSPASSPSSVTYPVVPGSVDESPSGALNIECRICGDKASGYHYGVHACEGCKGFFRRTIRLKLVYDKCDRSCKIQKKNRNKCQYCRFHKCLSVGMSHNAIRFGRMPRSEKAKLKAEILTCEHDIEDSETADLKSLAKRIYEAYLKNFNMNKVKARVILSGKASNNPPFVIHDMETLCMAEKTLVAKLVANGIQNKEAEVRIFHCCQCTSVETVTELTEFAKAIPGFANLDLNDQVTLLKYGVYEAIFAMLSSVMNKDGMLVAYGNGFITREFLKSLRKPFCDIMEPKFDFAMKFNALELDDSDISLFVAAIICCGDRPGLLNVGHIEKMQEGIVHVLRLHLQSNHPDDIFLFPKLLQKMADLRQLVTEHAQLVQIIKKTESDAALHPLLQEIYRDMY

[4] = Hepatotoxicity in STZ-induced Sprague-Dawley rat diabetic kidney disease model assessed as serum AST level at 25 to 50 mg/kg, po administered twice a day for 6 weeks; format: toxicity, organism-based; settings: in vivo, 1008 h, dose 25-50 mg/kg
[5] = Hepatotoxicity in STZ-induced Sprague-Dawley rat diabetic kidney disease model assessed as serum ALT level at 25 to 50 mg/kg, po administered twice a day for 6 weeks; format: toxicity, organism-based; settings: in vivo, 1008 h, dose 25-50 mg/kg
THP-1 = test: Cytotoxicity against human THP-1 assessed as reduction in cell viability at 1 to 30 uM after 48 hrs by CCK-8 assay; format: cell-based; settings: thp-1, 48 h, dose 1-30 µM
[6] = Cytotoxicity against human GMCs assessed as reduction in cell viability at 1 to 30 uM after 48 hrs by CCK-8 assay; format: tissue-based; settings: glomerular mesangial cell, dose 1-30 µM

EC50 [1] | EC50 [3] | Structure (SMILES) | also measured
> 10 µM | – | Cc1cc(COc2ccc3c(c2)O/C(=C\c2ccc4ccccc4c2)C3=O)cc(C)c1OC(C)(C)C(=O)O | –
> 10 µM | > 10 µM | Cc1cc(COc2ccc3c(c2)O/C(=C\c2ccc(F)cc2)C3=O)cc(C)c1OC(C)(C)C(=O)O | EC50 [2]: > 10 µM
– | – | Cc1cc(COc2ccc3c(c2)O/C(=C\c2ccc(C(F)(F)F)cc2)C3=O)cc(C)c1OC(C)(C)C(=O)O | Activity [4]: Non-Toxic; Activity [5]: Non-Toxic; Activity (THP-1): Non-Toxic; Activity [6]: Non-Toxic
> 10 µM | – | Cc1cc(COc2ccc3c(c2)O/C(=C\c2ccccc2)C3=O)cc(C)c1OC(C)(C)C(=O)O | –
> 10 µM | – | Cc1cc(COc2ccc3c(c2)O/C(=C\c2ccc(C(C)C)cc2)C3=O)cc(C)c1OC(C)(C)C(=O)O | –
> 10 µM | – | Cc1cc(COc2ccc3c(c2)O/C(=C\c2ccccc2C(F)(F)F)C3=O)cc(C)c1OC(C)(C)C(=O)O | –
> 10 µM | – | Cc1cc(COc2ccc3c(c2)O/C(=C\c2ccc(C#N)cc2)C3=O)cc(C)c1OC(C)(C)C(=O)O | –
2.79 µM | 0.76 µM | CSc1ccc(C(=O)/C=C/c2cc(C)c(OC(C)(C)C(=O)O)c(C)c2)cc1 [ELAFIBRANOR] | –
> 10 µM | > 10 µM | COc1ccc(/C=C2\Oc3cc(OCc4cc(C)c(OC(C)(C)C(=O)O)c(C)c4)ccc3C2=O)cc1 | –
> 10 µM | – | Cc1ccc(/C=C2\Oc3cc(OCc4cc(C)c(OC(C)(C)C(=O)O)c(C)c4)ccc3C2=O)cc1 | –
> 10 µM | – | Cc1cc(COc2ccc3c(c2)O/C(=C\c2ccc(Br)cc2)C3=O)cc(C)c1OC(C)(C)C(=O)O | –
> 10 µM | > 10 µM | CCOc1ccc(/C=C2\Oc3cc(OCc4cc(C)c(OC(C)(C)C(=O)O)c(C)c4)ccc3C2=O)cc1 | –
> 10 µM | – | Cc1cc(COc2ccc3c(c2)O/C(=C\c2ccc(Cl)cc2)C3=O)cc(C)c1OC(C)(C)C(=O)O | –
